Measurements taken from ChEMBL document CHEMBL1201862, “PubChem BioAssay data set” (2004).
Calls of active or inactive are those of the source.

Columns and labels:
Streptococcus [1] = assay: Luminescence Microorganism-Based Dose Response Follow up to Identify Compounds Cytotoxic to Streptococcus. [Related pubchem assays: 1677 (Project Summary), 1915, 1914, 1902 (Retest at Dose), 1900 (Counter Screen), 1662 (Primary HTS)]; assay type: functional, organism-based
[2] = tested on: Streptococcus sp. 'group A'; assay: Streptococcus pyogenes SK(-)GAS viability under kanamycin – luminescence, BacTiterGlo, confirmation, counter-screen for streptokinase expression inhibitor project, dose response (AID 1900); assay type: functional, organism-based
Streptococcus [3] = assay: GAS UMAA2166 growth inhibition – luminescence, BacTiterGlo, counter-screen for streptokinase expression inhibitor project, dose response (AID 1915); assay type: functional, organism-based;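 also: potency for reduction of bacterial viability or growth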
Streptokinase A = molecular target: T1, Streptokinase A (Streptococcus pyogenes serotype M1, UniProt P10520); assay: viability-normalized secreted streptokinase activity reduction – plasminogen activation absorbance, OD405, dose response (AID 1914); assay type: functional, Streptococcus pyogenes M1 GAS;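 also: secreted streptokinase activity via plasminogen activation per viability signal from cell pellet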
T1 sequence (P10520 whole entry): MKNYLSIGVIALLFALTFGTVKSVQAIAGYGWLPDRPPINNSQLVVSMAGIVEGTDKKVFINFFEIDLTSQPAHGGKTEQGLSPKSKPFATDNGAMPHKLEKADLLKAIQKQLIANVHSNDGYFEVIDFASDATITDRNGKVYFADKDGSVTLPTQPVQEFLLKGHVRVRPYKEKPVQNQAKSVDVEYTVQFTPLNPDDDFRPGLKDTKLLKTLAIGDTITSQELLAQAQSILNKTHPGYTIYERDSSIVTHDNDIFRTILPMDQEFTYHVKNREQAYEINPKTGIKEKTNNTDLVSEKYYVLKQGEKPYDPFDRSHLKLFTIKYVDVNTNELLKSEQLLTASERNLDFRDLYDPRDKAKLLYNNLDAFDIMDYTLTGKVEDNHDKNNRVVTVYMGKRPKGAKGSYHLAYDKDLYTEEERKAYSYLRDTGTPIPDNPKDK

[4] = molecular target: T2, Zinc finger protein mex-5 (Caenorhabditis elegans, UniProt Q9XUB2); assay: potency of MEX-5 RNA-binding blockers – biochemical, C. elegans, fluorescence polarization, dose response (AID 1960)
T2 sequence (Q9XUB2 whole entry): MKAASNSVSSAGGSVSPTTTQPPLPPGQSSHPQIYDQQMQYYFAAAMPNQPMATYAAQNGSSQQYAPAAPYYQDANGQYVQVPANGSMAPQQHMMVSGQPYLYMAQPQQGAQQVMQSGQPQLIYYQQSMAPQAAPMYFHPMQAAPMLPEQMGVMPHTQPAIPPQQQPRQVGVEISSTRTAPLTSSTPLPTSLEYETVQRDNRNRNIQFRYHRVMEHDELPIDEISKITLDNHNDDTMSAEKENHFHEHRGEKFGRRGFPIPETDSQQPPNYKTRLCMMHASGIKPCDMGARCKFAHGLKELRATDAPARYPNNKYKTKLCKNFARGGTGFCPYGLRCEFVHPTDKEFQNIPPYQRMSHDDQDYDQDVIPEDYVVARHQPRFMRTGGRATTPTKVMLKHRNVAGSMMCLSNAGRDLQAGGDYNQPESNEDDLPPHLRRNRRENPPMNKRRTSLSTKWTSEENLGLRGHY

[5] = NIH3T3 cell viability loss – ATP luminescence, mouse fibroblasts, counter-screen, dose response (AID 2010); assay type: functional, cell-based;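 also: cells exposed to compound for about 90 hours before reading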
[6] = molecular target: T3, RNA-binding protein pos-1 (Caenorhabditis elegans, UniProt G5EF15); assay: disruptors of C. elegans POS-1 RNA interaction – biochemical, fluorescence polarization, dose response (AID 1964);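 also: purified POS-1 fused to maltose binding protein made in E. coli; potency of compounds blocking POS-1 binding to fluorescent RNA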
T3 sequence (G5EF15 whole entry): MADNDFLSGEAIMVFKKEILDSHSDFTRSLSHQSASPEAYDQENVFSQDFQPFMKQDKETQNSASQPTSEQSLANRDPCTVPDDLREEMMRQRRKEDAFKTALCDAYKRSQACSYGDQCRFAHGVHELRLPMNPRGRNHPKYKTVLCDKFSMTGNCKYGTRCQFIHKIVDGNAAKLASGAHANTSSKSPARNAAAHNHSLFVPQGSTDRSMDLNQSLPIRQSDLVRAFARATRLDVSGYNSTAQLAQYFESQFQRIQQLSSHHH

Salmon testes DNA = assay: acridine orange-DNA binding displacement – biochemical, fluorescence polarization, cherry-picked samples, set 2, artefact control for KSHV LANA DNA-binding inhibitor project, dose response (AID 504727); set-up: species or system Salmonidae
[7] = Trypanosoma cruzi growth suppression in host cells – NIH3T3 host cells, beta-gal luminescence, confirmation (AID 2044); assay type: functional, cell-based;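 also: intracellular parasites grown in NIH/3T3 mouse fibroblasts as host cells; luminescent beta-galactosidase reporter signal from transgenic T. cruzi replicating inside host cells; inhibitors lower the luminescence signal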
[8] = molecular target: Melanin-concentrating hormone receptor 1 (Homo sapiens, UniProt Q99705); assay: Fluorescence-based counterscreen for antagonists of the G-protein coupled receptor 7 (GPR7): cell-based high throughput dose response assay to identify antagonists of the melanin-concentrating hormone receptor 1 (MCHR1).; assay type: functional
[9] = molecular target: Neurotensin receptor type 1 (Homo sapiens, UniProt P30989); assay type: functional;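 also: Image-based confirmatory dose-response assay measuring agonist activity at NTR1; NTR1-expressing U2OS osteosarcoma cells imaged for beta-arrestin GFP spot formation; agonist potency where compounds increase beta-arrestin recruitment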
[10] = molecular target: Dual specificity protein phosphatase 3 (Homo sapiens, UniProt P51452); assay: inhibition constants for human DUSP3 – biochemical, colorimetric, SAR follow-up (AID 2004)
[11] = molecular target: Acyl-homoserine lactone acylase PvdQ (Pseudomonas aeruginosa (strain LESB58), UniProt Q9I194); assay: PvdQ acylase enzyme activity blockers – biochemical, fluorescence, plate reader and imaging, cherry-picks, dose response (AID 493231)
Vero [12] = assay: Vero 76 cell viability after compound exposure – Vero 76 cells, synthesized analogs, cytotoxicity control for West Nile virus antiviral project, SAR follow-up (AID 2414); assay type: functional; details: Chlorocebus sabaeus
Vero [13] = assay: Vero cell viability after compound exposure – synthesized analogs, set II, cytotoxicity control for West Nile virus antiviral project, SAR follow-up (AID 2402); assay type: functional; details: Chlorocebus sabaeus
[14] = A Cell Based Assay for the Identification of Probe candidate Compounds with Anti- Venezuelan Equine Encephalitis virus. [Related pubchem assays: 2409, 2419, 1621, 2238, 2405, 2024, 2065, 2402, 2414, 1635, 1650, 2244 ]; assay type: functional
Vero [15] = assay: host cell viability loss, Vero E6 – synthesized analogs, cytotoxicity control for West Nile virus antiviral project, SAR follow-up (AID 2244); assay type: functional; details: Chlorocebus sabaeus
[16] = molecular target: T4, Sentrin-specific protease 1 (Homo sapiens, UniProt Q9P0U3); assay: Dose response confirmation of small molecule inhibitors of the catalytic domain of the SUMO protease, SENP1 in a FRET assay.; assay type: functional; details: read-out: IC50_Mean
T4 sequence (Q9P0U3 whole entry): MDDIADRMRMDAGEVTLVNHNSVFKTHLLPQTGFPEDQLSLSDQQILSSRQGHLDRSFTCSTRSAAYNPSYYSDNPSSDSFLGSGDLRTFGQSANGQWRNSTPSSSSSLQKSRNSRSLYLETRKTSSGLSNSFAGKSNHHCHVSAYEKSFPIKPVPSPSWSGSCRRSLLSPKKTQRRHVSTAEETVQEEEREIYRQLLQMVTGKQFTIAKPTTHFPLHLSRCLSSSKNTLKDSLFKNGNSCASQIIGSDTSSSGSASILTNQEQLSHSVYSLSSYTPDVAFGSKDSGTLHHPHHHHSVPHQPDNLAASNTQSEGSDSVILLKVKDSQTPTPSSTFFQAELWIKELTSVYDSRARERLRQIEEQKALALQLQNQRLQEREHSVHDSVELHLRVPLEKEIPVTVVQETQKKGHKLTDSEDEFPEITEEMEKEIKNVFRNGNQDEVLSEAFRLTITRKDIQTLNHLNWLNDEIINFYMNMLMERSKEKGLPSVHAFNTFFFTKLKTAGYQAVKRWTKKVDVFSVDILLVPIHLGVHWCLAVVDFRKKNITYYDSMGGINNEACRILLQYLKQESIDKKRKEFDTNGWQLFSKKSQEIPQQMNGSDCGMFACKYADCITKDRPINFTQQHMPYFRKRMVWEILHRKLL

[17] = HEK-293T cell viability reduction – luminescence, B-cell screen hits, cytotoxicity control for BCR NF-kB inhibitor project, dose response (AID 489021); assay type: functional, cell-based;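 also: HEK-293T cells carrying an NF-kB luciferase reporter; cells exposed to compound for about 14 hours before viability readout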
[18] = molecular target: T4, Sentrin-specific protease 1; assay: SENP1 catalytic domain blockers, concentration series – biochemical, kinetic FRET, dose response (AID 651697); assay type: functional; details: read-out: IC50_Mean
[19] = molecular target: T5, DNA repair protein RAD52 homolog (Homo sapiens, UniProt P43351); assay type: functional, biochemical
T5 sequence (P43351 whole entry): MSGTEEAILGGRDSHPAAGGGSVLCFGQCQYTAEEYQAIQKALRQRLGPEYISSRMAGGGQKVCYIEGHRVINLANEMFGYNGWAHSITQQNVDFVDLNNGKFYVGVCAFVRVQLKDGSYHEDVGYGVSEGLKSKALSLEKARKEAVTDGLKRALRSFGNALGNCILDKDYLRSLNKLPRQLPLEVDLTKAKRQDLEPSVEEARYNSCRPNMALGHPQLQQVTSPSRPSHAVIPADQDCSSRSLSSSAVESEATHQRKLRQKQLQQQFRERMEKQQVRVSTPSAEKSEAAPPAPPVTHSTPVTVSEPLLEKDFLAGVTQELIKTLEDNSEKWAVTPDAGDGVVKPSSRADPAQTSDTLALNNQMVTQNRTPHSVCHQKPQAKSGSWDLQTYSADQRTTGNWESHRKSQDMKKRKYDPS

[20] = molecular target: T6, Rac GTPase-activating protein 1 (Homo sapiens, UniProt Q9H0H5); assay: blockers of MgcRacGAP-driven Rac1 GTP hydrolysis – biochemical, ADP Hunter fluorescence, primary and confirmatory, confirmation (AID 624330); assay type: functional
T6 sequence (Q9H0H5 whole entry): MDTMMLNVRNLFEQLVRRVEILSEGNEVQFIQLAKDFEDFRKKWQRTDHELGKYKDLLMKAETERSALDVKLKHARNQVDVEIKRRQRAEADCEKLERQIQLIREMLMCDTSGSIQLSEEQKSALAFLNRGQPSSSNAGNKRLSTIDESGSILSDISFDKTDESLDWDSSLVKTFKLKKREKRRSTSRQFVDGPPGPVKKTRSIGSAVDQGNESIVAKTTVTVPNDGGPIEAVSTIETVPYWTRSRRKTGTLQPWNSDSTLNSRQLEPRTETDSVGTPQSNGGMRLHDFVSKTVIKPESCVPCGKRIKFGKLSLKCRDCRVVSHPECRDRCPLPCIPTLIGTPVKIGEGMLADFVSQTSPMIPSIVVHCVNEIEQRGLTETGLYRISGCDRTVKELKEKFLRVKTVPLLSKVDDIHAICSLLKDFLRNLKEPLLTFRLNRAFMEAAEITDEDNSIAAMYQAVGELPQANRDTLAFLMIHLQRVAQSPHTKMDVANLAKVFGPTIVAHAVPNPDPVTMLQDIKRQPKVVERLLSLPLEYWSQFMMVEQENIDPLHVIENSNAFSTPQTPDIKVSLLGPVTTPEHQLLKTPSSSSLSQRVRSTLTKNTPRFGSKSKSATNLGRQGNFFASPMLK

[21] = protection from phage-mediated lysis, alamar blue read-out – E. coli UTI89, K1F phage, bacterial capsule biogenesis inhibitors (AID 488966); assay type: functional
[22] = viability loss in HeLa cells – cytotoxicity control for MgcRacGAP inhibitor project, dose response (AID 624300); assay type: functional
Cytochrome P450 2C9 = Cytochrome P450 2C9 (Homo sapiens, UniProt P11712); details: Potency
Cytochrome P450 3A4 = Cytochrome P450 3A4 (Homo sapiens, UniProt P08684); details: Potency;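 also: confirmatory qHTS run detecting inhibitors and substrates of CYP3A4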
Sequence of Cytochrome P450 3A4 (P08684 whole entry): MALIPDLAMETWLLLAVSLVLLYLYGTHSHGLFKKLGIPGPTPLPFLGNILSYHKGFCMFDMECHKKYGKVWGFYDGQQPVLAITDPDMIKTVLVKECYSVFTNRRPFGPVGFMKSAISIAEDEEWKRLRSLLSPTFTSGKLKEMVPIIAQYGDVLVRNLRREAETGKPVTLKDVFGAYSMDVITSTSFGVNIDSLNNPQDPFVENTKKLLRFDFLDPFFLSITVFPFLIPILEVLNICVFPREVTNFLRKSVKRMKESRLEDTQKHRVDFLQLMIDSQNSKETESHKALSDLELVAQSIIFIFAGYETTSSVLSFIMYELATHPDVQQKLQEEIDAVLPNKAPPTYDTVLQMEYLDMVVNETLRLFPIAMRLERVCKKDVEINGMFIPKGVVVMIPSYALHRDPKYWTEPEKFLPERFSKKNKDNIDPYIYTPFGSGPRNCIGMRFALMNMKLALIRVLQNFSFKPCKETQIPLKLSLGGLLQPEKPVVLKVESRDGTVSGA

Sequence of Neurotensin receptor type 1 (P30989 whole entry): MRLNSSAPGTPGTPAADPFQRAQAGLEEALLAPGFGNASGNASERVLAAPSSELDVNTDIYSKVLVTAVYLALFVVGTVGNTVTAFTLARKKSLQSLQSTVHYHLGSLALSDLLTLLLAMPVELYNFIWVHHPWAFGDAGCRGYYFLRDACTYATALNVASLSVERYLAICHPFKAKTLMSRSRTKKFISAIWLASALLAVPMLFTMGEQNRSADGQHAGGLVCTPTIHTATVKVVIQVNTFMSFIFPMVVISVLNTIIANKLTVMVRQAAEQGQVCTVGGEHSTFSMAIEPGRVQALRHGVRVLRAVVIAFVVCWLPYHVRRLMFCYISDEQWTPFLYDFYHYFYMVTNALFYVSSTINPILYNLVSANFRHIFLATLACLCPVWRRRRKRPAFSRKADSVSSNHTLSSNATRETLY
Sequence of Cytochrome P450 2C9 (P11712 whole entry): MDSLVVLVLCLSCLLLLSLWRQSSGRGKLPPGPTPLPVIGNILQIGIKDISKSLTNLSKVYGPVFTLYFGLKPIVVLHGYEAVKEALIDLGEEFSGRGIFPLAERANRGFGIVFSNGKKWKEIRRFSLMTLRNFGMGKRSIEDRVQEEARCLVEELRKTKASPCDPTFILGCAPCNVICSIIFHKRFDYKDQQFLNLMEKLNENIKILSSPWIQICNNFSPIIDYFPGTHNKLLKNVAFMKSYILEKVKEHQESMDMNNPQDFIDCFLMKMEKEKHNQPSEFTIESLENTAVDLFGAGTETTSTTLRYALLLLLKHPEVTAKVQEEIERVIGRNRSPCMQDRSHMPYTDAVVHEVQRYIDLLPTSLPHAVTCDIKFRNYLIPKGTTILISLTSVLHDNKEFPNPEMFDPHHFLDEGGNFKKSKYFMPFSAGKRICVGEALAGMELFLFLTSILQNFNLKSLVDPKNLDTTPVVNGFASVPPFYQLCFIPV
Sequence of Dual specificity protein phosphatase 3 (P51452 whole entry): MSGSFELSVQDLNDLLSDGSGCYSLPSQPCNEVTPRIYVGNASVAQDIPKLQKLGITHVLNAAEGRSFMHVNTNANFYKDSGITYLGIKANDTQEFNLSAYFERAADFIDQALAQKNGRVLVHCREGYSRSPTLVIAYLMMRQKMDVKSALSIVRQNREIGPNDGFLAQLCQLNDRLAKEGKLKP
Sequence of Acyl-homoserine lactone acylase PvdQ (Q9I194 24-193 limits assumed): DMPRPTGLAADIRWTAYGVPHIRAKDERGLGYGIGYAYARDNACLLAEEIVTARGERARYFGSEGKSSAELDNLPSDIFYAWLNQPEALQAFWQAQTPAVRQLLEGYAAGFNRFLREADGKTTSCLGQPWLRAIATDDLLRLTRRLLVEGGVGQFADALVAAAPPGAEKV
Sequence of Acyl-homoserine lactone acylase PvdQ (Q9I194 217-762 limits assumed): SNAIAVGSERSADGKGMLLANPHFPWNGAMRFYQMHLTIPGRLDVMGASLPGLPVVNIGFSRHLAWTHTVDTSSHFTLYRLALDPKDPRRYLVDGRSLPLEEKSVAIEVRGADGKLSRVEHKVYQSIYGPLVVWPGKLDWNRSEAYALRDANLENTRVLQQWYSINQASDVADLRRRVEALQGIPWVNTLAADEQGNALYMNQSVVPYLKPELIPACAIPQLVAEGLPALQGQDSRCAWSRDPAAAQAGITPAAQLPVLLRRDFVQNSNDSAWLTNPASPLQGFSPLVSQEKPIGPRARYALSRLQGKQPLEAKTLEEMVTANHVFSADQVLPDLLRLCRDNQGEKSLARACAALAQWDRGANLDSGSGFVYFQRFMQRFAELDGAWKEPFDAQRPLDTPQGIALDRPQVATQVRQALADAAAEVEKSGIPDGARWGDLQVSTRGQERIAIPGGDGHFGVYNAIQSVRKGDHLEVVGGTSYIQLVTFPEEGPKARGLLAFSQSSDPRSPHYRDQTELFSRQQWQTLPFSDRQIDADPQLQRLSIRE
Sequence of Melanin-concentrating hormone receptor 1 (Q99705 whole entry): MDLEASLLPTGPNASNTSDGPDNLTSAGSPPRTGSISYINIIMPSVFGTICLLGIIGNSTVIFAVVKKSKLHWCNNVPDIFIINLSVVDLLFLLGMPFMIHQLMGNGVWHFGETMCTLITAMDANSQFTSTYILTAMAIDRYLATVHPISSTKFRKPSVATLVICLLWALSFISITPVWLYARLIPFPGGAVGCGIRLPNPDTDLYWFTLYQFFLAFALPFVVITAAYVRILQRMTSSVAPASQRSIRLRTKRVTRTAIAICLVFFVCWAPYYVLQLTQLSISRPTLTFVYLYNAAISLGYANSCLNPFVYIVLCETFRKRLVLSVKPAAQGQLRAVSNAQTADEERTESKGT

## COc1ccc(-c2csc3ncnc(N4CCN(c5ccccc5Cl)CC4)c23)cc1
Streptococcus [1]
  EC50: > 500 µM (not active)
[2]
  EC50: 82.6 µM (active)
Streptococcus [3]
  EC50: > 150 µM (not active)
Streptokinase A
  EC50: 3.7 µM (active)

## COc1cccc(OCCCn2cc(/C=C3/C(=N)N4C=C(C)SC4=NC3=O)c3ccccc32)c1
[4]
  EC50: 109 µM (active)
[5]
  EC50: > 60 µM (not active)
[6]
  EC50: 108 µM (active)
Salmon testes DNA
  AC50: 65.9 µM (active)
[7]
  EC50: 1.34 µM (active)

## Cc1ccc(C2C3=C(NCCN=C3c3ccccc3)C(=O)N2c2ccccc2)cc1 (stereo unspecified)
[8]
  IC50: > 14.6 µM (not active)

## O=C(COC(=O)/C=C/C(=O)OCC(=O)NC12CC3CC(CC(C3)C1)C2)NC12CC3CC(CC(C3)C1)C2
[9]
  EC50: > 40 µM (inactive)

## CC(C)C1SC(N/N=C/c2ccc(O)cc2)=NC1=O (stereo unspecified)
[10]
  Ki: 36.1 µM (inactive)

## O=C(CSCc1ccco1)N1CCc2ccccc21
[11]
  AC50: 1.9 µM (active)

## COc1cccc(NC(=O)CSc2nc3ccccc3c(=O)n2-c2ccc(F)cc2)c1
Vero [12]
  CC50: > 66.6 µM (active)
Vero [13]
  CC50: > 100 µM (active)
[14]
  IC50: 64.2 µM (active)
Vero [15]
  CC50: > 40 µM (active)

## CCSc1ncc(Cl)c(C(=O)Nc2sc3c(c2C(=O)NCc2cccnc2)CCCC3)n1
[16]
  IC50: 5.97 µM (active)
[17]
  IC50: > 80 µM (inactive)
[18]
  IC50: 19.1 µM (active)

## O=C1c2cccc(NCCNCCO)c2C(=O)c2cccc(NCCNCCO)c21
[19]
  AC50: < 0.15 µM (active)
[20]
  IC50: 41.3 µM (active)
[21]
  IC50: > 300 µM (active)
[22]
  CC50: 23.1 µM (active)

## O=c1c(O)c(-c2ccc(O)cc2)oc2ccc(O)cc12
Cytochrome P450 2C9
  AC50: 10 µM (inconclusive)
Cytochrome P450 3A4
  AC50: 12.6 µM (inconclusive)
